In patent publication US20070161643A1, “Pyridin-2-one compounds useful as inhibitors of thrombin” (priority 2004, published 2007):

Target: T1, Human α-thrombin (Homo sapiens, UniProt P00734)
T1 construct: 12 μL of α-thrombin solution (Human α-thrombin, Sigma Chemical Co. or Hematologic Technologies); purchased Sigma Chemical Co. or Hematologic Technologies
Test: Test B: Determination of thrombin inhibition with a chromogenic, robotic assay
Assay type: biochemical
Method: The thrombin inhibitor potency is measured with a chromogenic substrate method, in a Plato 3300 robotic microplate processor (Rosys AG, CH-8634 Hombrechtikon, Switzerland), using 96-well, half volume microtitre plates (Costar, Cambridge, Mass., USA; Cat No 3690). Stock solutions of test substance in DMSO (72 μL), 0.1-1 mmol/L, are diluted serially 1:3 (24+48 μL) with DMSO to obtain ten different concentrations, which are analysed as samples in the assay. 2 μL of test sample is diluted with 124 μL assay buffer, 12 μL of chromogenic substrate solution (S-2366, Chromogenix, Mölndal, Sweden) in assay buffer and finally 12 μL of α-thrombin solution (Human α-thrombin, Sigma Chemical Co. or Hematologic Technologies) in assay buffer, are added, and the samples mixed. The final assay concentrations are: test substance 0.00068-133 μmol/L, S-2366 0.30 mmol/L, α-thrombin 0.020 NIHU/mL. The linear absorbance increment during 40 minutes incubation at 37° C. is used for calculation of percentage inhibition for the test samples, as compared to blanks without inhibitor.

IC50: 92.2 nM
SMILES: Cc1ccc(C)c(CCNn2ccc(C)c(CC(=O)NCc3ccc(C(=N)N)cc3)c2=O)c1 [2(xi), N-(4-Carbamimidoylbenzyl)-2-{1-[2-(2,5-dimethylphenyl)ethylamino]-4-methyl-2-oxo-1,2-dihydropyridin-3-yl}acetamide]
